Counter-ions that a name gives are not always drawn. Like-named read-outs stand apart in the source and are kept apart here.
Biological target: AaDOP2 (Aedes aegypti, UniProt H6D5H2)
Test: AaDOP2 antagonist screen of the LOPAC1280 library (HEK-CRELuc-Aadop2 cells, luminescence)
Type: cell-based
[1] = 10 µM compound, 300 nM dopamine, 2 hr, hit = compound effect <20

Sequence of AaDOP2 (H6D5H2 1-476): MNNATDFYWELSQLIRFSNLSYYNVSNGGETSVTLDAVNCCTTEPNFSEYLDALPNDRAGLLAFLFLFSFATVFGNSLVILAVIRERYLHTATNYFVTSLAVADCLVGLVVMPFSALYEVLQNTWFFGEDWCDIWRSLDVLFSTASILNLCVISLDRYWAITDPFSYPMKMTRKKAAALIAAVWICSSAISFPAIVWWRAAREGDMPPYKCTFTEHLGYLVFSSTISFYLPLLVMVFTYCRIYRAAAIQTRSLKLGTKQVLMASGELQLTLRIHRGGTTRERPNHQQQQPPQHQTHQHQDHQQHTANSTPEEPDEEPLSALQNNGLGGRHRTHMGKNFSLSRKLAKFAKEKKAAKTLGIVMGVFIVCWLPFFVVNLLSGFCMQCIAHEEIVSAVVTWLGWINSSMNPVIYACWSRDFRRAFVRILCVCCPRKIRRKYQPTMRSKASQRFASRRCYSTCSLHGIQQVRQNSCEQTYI

| SMILES | Compound effect (percent receptor signaling in presence of test compound, relative lux units relative to the SCH23390 control) | other results |
| --- | --- | --- |
| O=c1ccc2ccc(O)c(O)c2o1 [Compound 393, Daphnetin] | 74 | – |
| CCC(=O)N1CCN(C(=O)c2ccccc2)CC1 [Compound 394, DM 235] | 101 | – |
| CC1(C)CCC=[N+]1[O-] [Compound 395, 5,5-Dimethyl-1-pyrroline-N-oxide] | 94 | – |
| Nc1ccn([C@H]2CC[C@@H](CO)O2)c(=O)n1 [Compound 396, 2',3'-dideoxycytidine] | 102 | – |
| O=c1c2ccccc2[nH]c(=S)n1CCN1CCC(=C(c2ccc(F)cc2)c2ccc(F)cc2)CC1 [Compound 397, Diacylglycerol Kinase Inhibitor II] | 74 | – |
| CNCCc1ccc(O)c(O)c1.Cl [Compound 399, N-Methyldopamine hydrochloride] | 94 | – |
| C[N+]1(C)CCN(c2ccccc2)CC1.[I-] [Compound 400, 1,1-Dimethyl-4-phenyl-piperazinium iodide] | 87 | – |
| Cc1nc2sccn2c(=O)c1CCN1CCC(=C(c2ccccc2)c2ccc(F)cc2)CC1 [Compound 401, Diacylglycerol kinase inhibitor I] | – | % of the SCH23390 effect (percent inhibition of receptor response relative to the SCH23390 control) (10 µM compound, 300 nM dopamine, 2 hr): 90%; Compound effect (percent receptor signaling in presence of test compound, relative lux units relative to the SCH23390 control) [1]: 10% |
| CC(C)N(CCC(C(N)=O)(c1ccccc1)c1ccccn1)C(C)C (stereo not shown) [Compound 402, Disopyramide phosphate] | 104 | – |
| CN(C)[C@@H]1C(O)=C(C(N)=O)C(=O)[C@@]2(O)C(O)=C3C(=O)c4c(O)ccc(Cl)c4[C@@H](O)[C@H]3C[C@@H]12 [Compound 403, Demeclocycline hydrochloride] | 84 | – |
| O=C(O)CN(CCN(CC(=O)O)CC(=O)O)CCN(CC(=O)O)CC(=O)O [Compound 404, Diethylenetriaminepentaacetic acid] | – | Compound effect (percent receptor signaling in presence of test compound, relative lux units relative to the SCH23390 control) [1]: 118% |
| O=C(O)Cc1ccccc1Nc1c(Cl)cccc1Cl [Compound 405, Diclofenac sodium] | 94 | – |
| c1ccc(-c2ccccn2)nc1 [Compound 408, 2,2'-Bipyridyl] | 94 | – |
| CC(C)N(CCC(C(N)=O)(c1ccccc1)c1ccccn1)C(C)C (stereo not shown) [Compound 409, Disopyramide] | 95 | – |
| O=c1c(-c2ccc(O)cc2)coc2cc(O)ccc12 [Compound 410, Daidzein] | 47 | – |
| COc1c2c(nc3ccccc13)OC(C(C)(O)CO)C2 (stereo not shown) [Compound 411, Dubinidine] | – | Compound effect (percent receptor signaling in presence of test compound, relative lux units relative to the SCH23390 control) [1]: 100% |
| O=c1oc(Cl)c(Cl)c2ccccc12 [Compound 413, 3,4-Dichloroisocoumarin] | 96 | – |
| Clc1ccc(N2C[C@H]3CC[C@@H](C2)N3)nn1 [Compound 414, DBO-83] | 100 | – |
| CCCCCCCCCCC/C=C\C(C)(C)/C=C\CCCC(=O)O [Compound 415, 7,7-Dimethyl-(5Z,8Z)-eicosadienoic acid] | – | Compound effect (percent receptor signaling in presence of test compound, relative lux units relative to the SCH23390 control) [1]: 82% |
| CN(N=O)c1cc(O)ccc1O [Compound 417, Dephostatin] | 111 | – |
| N/C(=N\C(=O)c1nc(Cl)c(N)nc1N)NCc1ccc(Cl)c(Cl)c1 [Compound 418, 3',4'-Dichlorobenzamil] | – | Compound effect (percent receptor signaling in presence of test compound, relative lux units relative to the SCH23390 control) [1]: 73% |
| Nc1nccc2c1ncn2[C@@H]1O[C@H](CO)[C@@H](O)[C@H]1O [Compound 419, 3-deazaadenosine] | 59 | – |
| C/C=C1\C(=O)C[C@H]2[C@@H]3CCC4=CC(=O)CC[C@]4(C)[C@H]3CC[C@]12C [Compound 420, (Z)-Gugglesterone] | – | Compound effect (percent receptor signaling in presence of test compound, relative lux units relative to the SCH23390 control) [1]: 91% |
| C#C[C@]1(O)CC[C@H]2[C@@H]3CCC4=Cc5oncc5C[C@]4(C)[C@H]3CC[C@@]21C [Compound 421, Danazol] | 83 | – |
| CCCCCCN(CCCCCC)C(=O)Cc1c(-c2ccc(F)cc2)[nH]c2ccccc12 [Compound 422, N,N-Dihexyl-2-(4-fluorophenyl)indole-3-acetamide] | 93 | – |
| Oc1c2ccccc2c2c3c(cccc13)N=N2 [Compound 424, SP600125] | 101 | – |

| SMILES | Compound effect (percent receptor signaling in presence of test compound, relative lux units relative to the SCH23390 control) | other results |
| --- | --- | --- |
| CC1=NS(=O)(=O)c2cc(Cl)ccc2N1 [Compound 425, Diazoxide] | 115 | – |
| O=C(O)Cc1ccc(O)c(O)c1 [Compound 426, 3,4-Dihydroxyphenylacetic acid] | 120 | – |
| O=C1CN(/N=C/c2ccc(-c3ccc([N+](=O)[O-])cc3)o2)C(O)=N1 [Compound 427, Dantrolene sodium] | 100 | – |
| CCn1c(=O)[nH]c2cc(Cl)c(Cl)cc21 [Compound 428, DCEBIO] | 67 | – |
| OC[C@H]1NC[C@H](O)[C@@H](O)[C@@H]1O [Compound 429, 1-Deoxynojirimycin hydrochloride] | 116 | – |
| N[C@@H](Cc1ccc(O)c(O)c1)C(=O)O [Compound 430, L-3,4-Dihydroxyphenylalanine] | 91 | – |
| COc1cc2nc(N3CCN(C(=O)C4COc5ccccc5O4)CC3)nc(N)c2cc1OC (stereo not shown) [Compound 432, Doxazosin mesylate] | 86 | – |
| C[C@H]1c2cccc(O)c2C(=O)C2=C(O)[C@]3(O)C(=O)C(C(N)=O)=C(O)[C@@H](N(C)C)[C@@H]3[C@@H](O)[C@@H]21 [Compound 433, Doxycycline hydrochloride] | 103 | – |
| Br.NC1CCc2cc(O)c(O)cc2C1 (stereo not shown) [Compound 434, 6,7-ADTN hydrobromide] | 118 | – |
| Br.CN1CCc2cc(O)cc3c2[C@H]1Cc1ccc(O)c(O)c1-3 [Compound 437, R(-)-2,10,11-Trihydroxyaporphine hybrobromide] | – | Compound effect (percent receptor signaling in presence of test compound, relative lux units relative to the SCH23390 control) [1]: 71% |
| CCCN(CCC)CCc1ccc(O)c(O)c1 [Compound 439, Dipropyldopamine hydrobromide] | 106 | – |
| Br.C=CCN1CCc2cccc3c2[C@H]1Cc1ccc(O)c(O)c1-3 [Compound 441, R(-)-N-Allylnorapomorphine hydrobromide] | 87 | – |
| CCn1cc(C(=O)O)c(=O)c2ccc(Cc3ccccc3)nc21 [Compound 442, Amfonelic acid] | 96 | – |
| O=C1NC(c2cccc([N+](=O)[O-])c2)=CCN1c1ccccc1O [Compound 443, Icilin] | 87 | – |
| Cl.Cl.Fc1ccc(C(OCCN2CCN(CCCc3ccccc3)CC2)c2ccc(F)cc2)cc1 [Compound 445, GBR-12909 dihydrochloride] | – | Compound effect (percent receptor signaling in presence of test compound, relative lux units relative to the SCH23390 control) [1]: 59% |
| C[N+]1(C)CCC(OC(=O)C(c2ccccc2)c2ccccc2)CC1.[I-] [Compound 449, 4-DAMP methiodide] | – | Compound effect (percent receptor signaling in presence of test compound, relative lux units relative to the SCH23390 control) [1]: 97% |
| CCCn1c(=O)c2c(ncn2C)n(CCC)c1=O [Compound 450, 1,3-Dipropyl-7-methylxanthine] | 123 | – |
| CC(C)c1cccc(C(C)C)c1O [Compound 452, Propofol] | 94 | – |
| CN1CC[C@@]23CCCC[C@@H]2[C@@H]1Cc1ccc(O)cc13.O=C(O)C(O)C(O)C(=O)O [Compound 453, Dextrorphan D-tartrate] | 107 | – |
| CCCCC1(C2CCCC2)Cc2cc(OCC(=O)O)c(Cl)c(Cl)c2C1=O (stereo not drawn) [Compound 454, R(+)-Butylindazone] | – | Compound effect (percent receptor signaling in presence of test compound, relative lux units relative to the SCH23390 control) [1]: 97% |
| COc1cc(OC)cc(C(CNc2ncnc3c2ncn3[C@@H]2O[C@H](CO)[C@@H](O)[C@H]2O)c2ccccc2C)c1 (stereo partly shown) [Compound 455, DPMA] | 110 | – |
| O=[N+]([O-])c1cc(O)c(O)c([N+](=O)[O-])c1 [Compound 456, 3,5-Dinitrocatechol] | 95 | – |
| CCCN(CCC)CCc1c[nH]c2ccc(C(N)=O)cc12.O=C(O)/C=C\C(=O)O [Compound 457, N,N-Dipropyl-5-carboxamidotryptamine maleate] | 106 | – |
| O=C1N=c2cc(Cl)c(Cl)cc2=NC1=O [Compound 458, 6,7-Dichloroquinoxaline-2,3-dione] | 129 | – |
| C#CCn1c(=O)c2c(ncn2C)n(C)c1=O [Compound 459, 3,7-Dimethyl-I-propargylxanthine] | 101 | – |

Reference: article PMC3265452 (PLoS Neglected Tropical Diseases, 2012)
